Laboratory results from patent US8598078B2, “Condensed anthran I lami de derivatives as insecticides” (Syngenta Crop Protection, LLC, priority 2007, dated 2013).
Read-outs that look alike come from different tables or passages of the source.

How the values were obtained:
Type in all cases: in vivo
[1] = test system: Plutella xylostella (diamond back moth); test: Plutella xylostella (larvicide, feeding/residual contact activity, preventive), artificial diet MTP; conditions: 120 h, read-out: activity (larval mortality, antifeedant, growth regulation)
Method: Plutella xylostella (Diamond Back Moth)
(§1) (Larvicide, Feeding/Residual Contact Activity, Preventive)
24-well microtiter plate (MTP) with artificial diet was treated with test solutions by pipetting. After drying, the MTP's were infested with larvae (L2) (10-15 per well). After an incubation period of 5 days, samples were checked for larval mortality, antifeedant and growth regulation.

[2] = test system: Myzus persicae (green peach aphid); test: Activity against Myzus persicae (mixed population, systemic/feeding activity, curative), pea seedling roots in test solution; conditions: 144 h, read-out: activity (mortality and special effects on the plant)
Description: (§2) Activity Against Myzus persicae (Green Peach Aphid)
(Mixed Population, Systemic/Feeding Activity, Curative)
Roots of pea seedlings, infested with an aphid population of mixed ages, were placed directly in the test solutions. 6 days after introduction, samples were checked for mortality and special effects on the plant.

[3] = test system: Myzus persicae (green peach aphid); test: Activity against Myzus persicae (mixed population, feeding/residual contact activity, preventive), sunflower leaf discs; conditions: foliar, 144 h, read-out: activity (mortality and special effects)
Method: as §2
(§3) (Mixed Population, Feeding/Residual Contact Activity, Preventive)
(§4) Sunflower leaf discs were placed on agar in a 24-well microtiter plate and sprayed with test solutions. After drying, the leaf discs were infested with an aphid population of mixed ages. After an incubation period of 6 days, samples were checked for mortality and special effects (e.g. phytotoxicity).

[4] = test system: Spodoptera littoralis (Egyptian cotton leafworm); test: Activity against Spodoptera littoralis (larvicide, feeding/residual contact activity, preventive), cotton leaf discs; conditions: foliar, 72 h, read-out: activity (mortality, repellent effect, feeding behaviour, growth regulation)
Description: Activity Against Spodoptera littoralis (Egyptian Cotton Leafworm)
as §1
Cotton leaf discs were placed on agar in a 24-well microtiter plate and sprayed with test solutions. After drying, the leaf discs were infested with 5 L1 larvae. The samples were checked for mortality, repellent effect, feeding behaviour, and growth regulation 3 days after treatment.

[5] = test system: Heliothis virescens (tobacco budworm); test: Activity against Heliothis virescens (ovo-larvicide, feeding/contact activity, curative), eggs on artificial diet; conditions: read-out: activity (egg mortality, larval mortality, growth regulation)
Method: Activity Against Heliothis virescens (Tobacco Budworm)
(Ovo-Larvicide, Feeding/Contact Activity, Curative)
Eggs (0-24 h old) were placed in 24-well microtiter plate on artificial diet and treated with test solutions by pipetting. After an incubation period of 4 days, samples were checked for egg mortality, larval mortality, and growth regulation.

[6] = test system: Thrips tabaci (onion thrips); test: Activity against Thrips tabaci (mixed population, feeding/residual contact activity, preventive), sunflower leaf discs; conditions: foliar, 144 h, read-out: activity (mortality and special effects)
Method: Activity Against Thrips tabaci (Onion Thrips)
as §3
as §4, with “a thrips” for “an aphid”

[7] = test system: Diabrotica balteata (corn root worm); test: Diabrotica balteata (larvicide, feeding/residual contact activity, preventive), artificial diet MTP; conditions: 120 h, read-out: activity (larval mortality, antifeedant, growth regulation)
Method: Diabrotica balteata (Corn Root Worm)
as §1
24-well microtiter plate (MTP) with artificial diet was treated with test solutions by pipetting. After drying, the MTP's were infested with larvae (L2) (6-10 per well). After an incubation period of 5 days, samples were checked for larval mortality, antifeedant and growth regulation.

[8] = test system: Nilaparvata lugens (brown rice planthopper); test: Activity against Nilaparvata lugens (larvicide, feeding/contact), rice seedlings; conditions: read-out: activity (mortality, growth regulation, effects on the F1 generation)
Method: Activity Against Nilaparvata lugens (Brown Rice Planthopper)
(Larvicide, Feeding/Contact)
Rice seedlings were treated with the diluted test solutions in a spray chamber. After drying, they were infested with 20 N3 nymphs (2 replicates). 6-12 days after the treatment samples were checked for mortality, growth regulation, and effects on the F, generation.

[9] = 400 ppm, L2 larvae on treated artificial diet, 5 days incubation
[10] = 400 ppm, mixed-age aphids on sprayed sunflower leaf discs, 6 days incubation
[11] = 400 ppm, L1 larvae on sprayed cotton leaf discs, 3 days after treatment
[12] = 400 ppm, eggs 0-24 h old on artificial diet, 4 days incubation
[13] = 400 ppm, systemic, roots of infested pea seedlings in test solution, 6 days

Measured: mortality at 400 ppm

COCn1cc2cc(C)c(NC(=O)c3cc(OC)nn3-c3ncccc3Cl)c(C(=O)NC(C)C)c2n1 [P.3]
> 80%: [1] | [2] | [3] | [4] | [5] | [6]

COCn1cc2cc(Cl)c(NC(=O)c3cc(C(F)(F)F)nn3-c3ncccc3Cl)c(C(=O)NC(C)C)c2n1 [P.6]
> 80%: [1] | [2] | [3] | [4] | [7] | [5] | [6]

C#CCn1cc2cc(C)c(NC(=O)c3cc(OC)nn3-c3ncccc3Cl)c(C(=O)NC(C)C)c2n1 [P.7]
> 80%: [1] | [2] | [3] | [4] | [7] | [5] | [6]

C=CCn1cc2cc(C)c(NC(=O)c3cc(OC)nn3-c3ncccc3Cl)c(C(=O)NC(C)C)c2n1 [P.8]
> 80%: [1] | [2] | [3] | [4] | [7] | [5] | [6]

COc1cc(C(=O)Nc2c(C)cc3cn(CC(F)(F)F)nc3c2C(=O)NC(C)C)n(-c2ncccc2Cl)n1 [P.10]
> 80%: [1] | [3] | [4] | [5] | [6]

COC(=O)N(C)Cn1cc2cc(C)c(NC(=O)c3cc(OC)nn3-c3ncccc3Cl)c(C(=O)NC(C)C)c2n1 [P.11]
> 80%: [1] | [2] | [3] | [4] | [7] | [5] | [6]

COCCOCn1cc2cc(C)c(NC(=O)c3cc(OC)nn3-c3ncccc3Cl)c(C(=O)NC(C)C)c2n1 [P.12, 6-{[2-(3-chloro-pyridin-2-yl)-5-methoxy-2H-pyrazole-3-carbonyl]-amino}-2-(2-methoxy-ethoxymethyl)-5-methyl-2H-indazole-7-carboxylic acid isopropylamide]
> 80%: [8] | [1] | [2] | [3] | [4] | [5] | [6]

COCCOCn1ncc2cc(C)c(NC(=O)c3cc(OC)nn3-c3ncccc3Cl)c(C(=O)NC(C)C)c21 [P.13, 6-{[2-(3-chloro-pyridin-2-yl)-5-methoxy-2H-pyrazole-3-carbonyl]-amino}-1-(2-methoxy-ethoxymethyl)-5-methyl-1H-indazole-7-carboxylic acid isopropylamide]
> 80%: [1] | [2] | [3] | [4] | [5] | [6]

COc1cc(C(=O)Nc2c(C)cc3cnn(CC#N)c3c2C(=O)NC(C)C)n(-c2ncccc2Cl)n1 [P.14]
> 80%: [1] | [2] | [3] | [4] | [5] | [6]

COC(=O)N(C)Cn1ncc2cc(C)c(NC(=O)c3cc(OC)nn3-c3ncccc3Cl)c(C(=O)NC(C)C)c21 [P.15]
> 80%: [1] | [2] | [3] | [4] | [7] | [5] | [6]

CCS(=O)(=O)N(C)Cn1cc2cc(C)c(NC(=O)c3cc(OC)nn3-c3ncccc3Cl)c(C(=O)NC(C)C)c2n1 [P.17]
> 80%: [1] | [2] | [3] | [4] | [5]

CCS(=O)(=O)N(C)Cn1ncc2cc(C)c(NC(=O)c3cc(OC)nn3-c3ncccc3Cl)c(C(=O)NC(C)C)c21 [P.18]
> 80%: [1] | [2] | [3] | [4] | [5]

CCCCCCOCCOC(=O)n1cc2cc(C)c(NC(=O)c3cc(OC)nn3-c3ncccc3Cl)c(C(=O)NC(C)C)c2n1 [P.24]
> 80%: [1] | [2] | [3] | [4] | [7] | [5]

CCCCCCCC/C=C\CCCCCCCC(=O)n1cc2cc(C)c(NC(=O)c3cc(OC)nn3-c3ncccc3Cl)c(C(=O)NC(C)C)c2n1 [P.25]
> 80%: [1]; [9] | [3]; [10] | [4]; [11] | [5]; [12] | [6]; 400 ppm, mixed-age thrips on sprayed sunflower leaf discs, 6 days incubation

COc1cc(C(=O)Nc2c(C)cc3cn(C(=O)CC(C)(C)C)nc3c2C(=O)NC(C)C)n(-c2ncccc2Cl)n1 [P.27]
> 80%: [1] | [2] | [3] | [4] | [7] | [5] | [6]

CCCCCCCCCCOCCOC(=O)n1cc2cc(C)c(NC(=O)c3cc(OC)nn3-c3ncccc3Cl)c(C(=O)NC(C)(C)C)c2n1 [P.28]
> 80%: [1]; [9] | [2]; [13] | [3]; [10] | [4]; [11] | [5]; [12]

CCCCCCCCCCCCCCCCCCOCCOC(=O)n1cc2cc(C)c(NC(=O)c3cc(OC)nn3-c3ncccc3Cl)c(C(=O)NC(C)C)c2n1 [P.30]
> 80%: [1]; [9] | [2]; [13] | [3]; [10] | [4]; [11] | [7]; [9] | [5]; [12]

COc1cc(C(=O)Nc2c(C)cc3cn(C(=O)C4(C)CCCCC4)nc3c2C(=O)NC(C)C)n(-c2ncccc2Cl)n1 [P.32]
> 80%: [1] | [2] | [3] | [4] | [7] | [5] | [6]

COc1cc(C(=O)Nc2c(C)cc3cn(Cc4ccccc4)nc3c2C(=O)NC(C)C)n(-c2ncccc2Cl)n1 [P.33]
> 80%: [1] | [3] | [4] | [7] | [5] | [6]

COc1ccc(Cn2cc3cc(C)c(NC(=O)c4cc(OC)nn4-c4ncccc4Cl)c(C(=O)NC(C)C)c3n2)cc1 [P.34, 6-{[2-(3-chloro-pyridin-2-yl)-5-methoxy-2H-pyrazole-3-carbonyl]-amino}-2-(4-methoxy-benzyl)-5-methyl-2H-indazole-7-carboxylic acid isopropyl amide]
> 80%: [1] | [2] | [3] | [4] | [5] | [6]

CCCCN(CCCC)C(=O)n1cc2cc(C)c(NC(=O)c3cc(OC)nn3-c3ncccc3Cl)c(C(=O)NC(C)C)c2n1 [P.35]
> 80%: [1] | [5] | [6]

COc1cc(C(=O)Nc2c(C)cc3cn(C(=O)N(C)c4ccccc4)nc3c2C(=O)NC(C)C)n(-c2ncccc2Cl)n1 [P.36]
> 80%: [1] | [2] | [5] | [6]
